Here are results for 19 compounds from PubChem BioAssay (NCI).

Among the test systems are 786-0 renal; DU-145 prostate; HCC-2998 colon; HL-60(TB) leukemia; HOP-62 NSCLC; LOX IMVI melanoma; MDA-MB-231 breast; MDA-N; NCI-H460 lung; T-47D breast; OVCAR-8 ovarian.
Experiment in all cases: inhibition of tumour cell growth, NCI panel, 48 h

Values joined by “and” are separate entries in the source; they are usually repeats but may differ in a detail not shown here. Identical values can stand only once.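 In this assay, cells in 96-well plates receive the compound at five concentrations for 48 hours. Endpoints are linearly interpolated between the surrounding concentrations. GI50 is the concentration that inhibits growth by half. TGI is the concentration that stops growth completely.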

With `COC(=O)CCNc1c2ccccc2nc2cccc([N+](=O)[O-])c12`, the TGI was 0.00134 µM in the experiment with 786-0 renal; 19.6 µM in the experiment with DU-145 prostate; 2.33 µM in the experiment on HCC-2998 colon; 0.028 µM in the experiment with HL-60(TB) leukemia; 0.00667 µM in the experiment on HOP-62 NSCLC; 0.0172 µM and 0.053 µM with LOX IMVI melanoma. Further, the TGI amounted to 1.44 µM with MDA-MB-231 breast, 0.00136 µM in the experiment on MDA-N, 0.234 µM in the experiment with NCI-H460 lung and 0.466 µM in the experiment on T-47D breast. For the same compound, the GI50 in the experiment on HCC-2998 colon is 1.04 µM; with HL-60(TB) leukemia, 0.00274 µM; in the experiment with HOP-62 NSCLC, 0.0015 µM; with LOX IMVI melanoma it was 0.00367 µM and 0.0126 µM; in the experiment with MDA-MB-231 breast it was 0.394 µM; in the experiment with NCI-H460 lung, 0.0138 µM. Further, in the experiment with T-47D breast, the GI50 is 0.0283 µM.

Regarding `C=CCOC(=O)N1c2ccc(O)cc2[C@@]23O[C@@]24[C@@H]1C#C/C=C\C#C[C@]3(O)C(OC)(OC)C[C@@H]4C`, the TGI is 78.3 µM in the experiment with 786-0 renal; > 100 µM in the experiment with DU-145 prostate; > 100 µM in the experiment with HCC-2998 colon; 72 µM with HL-60(TB) leukemia; 85.9 µM with HOP-62 NSCLC; 52.8 µM in the experiment with MDA-MB-231 breast. Also, the TGI with MDA-N is 77.5 µM; with NCI-H460 lung it was 83.3 µM; in the experiment on OVCAR-8 ovarian, 85.5 µM; in the experiment with T-47D breast, > 100 µM.

Take `CCC(CC)(CO)CNc1cc(Cl)nc(N)n1`: the TGI with 786-0 renal, in the experiment on DU-145 prostate, with HL-60(TB) leukemia, in the experiment with HOP-62 NSCLC, in the experiment on LOX IMVI melanoma and in the experiment with MDA-MB-231 breast was > 100 µM each time. Besides, the TGI in the experiment with MDA-N, in the experiment with NCI-H460 lung, with OVCAR-8 ovarian and with T-47D breast was > 100 µM in each case.

Turning to `CN1CCc2c(sc3ncn(Nc4ccc(Cl)cc4)c(=N)c23)C1`, the TGI in the experiment with 786-0 renal, in the experiment on DU-145 prostate, in the experiment with HL-60(TB) leukemia, in the experiment on HOP-62 NSCLC, in the experiment with LOX IMVI melanoma and with MDA-MB-231 breast was > 100 µM each time. For the same compound, the TGI with MDA-N, in the experiment with NCI-H460 lung, in the experiment with OVCAR-8 ovarian and in the experiment on T-47D breast was > 100 µM in each case.

For the compound `O=[N+]([O-])/C=C(\CS(=O)(=O)c1ccccc1)c1ccc2c(c1)OCO2`, the TGI in the experiment on 786-0 renal, in the experiment on DU-145 prostate, in the experiment on HCC-2998 colon, with HL-60(TB) leukemia, with HOP-62 NSCLC and in the experiment on LOX IMVI melanoma was > 100 µM in each case. The TGI in the experiment with MDA-MB-231 breast is 64.1 µM; in the experiment on MDA-N it was > 100 µM; in the experiment with OVCAR-8 ovarian, > 100 µM; in the experiment with T-47D breast, > 100 µM.

`COC(=O)C1CCC(=O)N1C(c1cc(OC)c(OC)c(OC)c1)c1cccc2ccccc12` (centres undefined): the TGI in the experiment with 786-0 renal, in the experiment on DU-145 prostate, with HL-60(TB) leukemia, with HOP-62 NSCLC, in the experiment with LOX IMVI melanoma and in the experiment with MDA-MB-231 breast was > 100 µM each time. Moreover, the TGI in the experiment on MDA-N, in the experiment on NCI-H460 lung, with OVCAR-8 ovarian and in the experiment with T-47D breast was > 100 µM throughout.

In the case of `C=C(C)[C@H]1C2=CC(C)=C(O2)[C@@H](O)[C@H](C(=C)C)CCC2=C[C@H]1OC2=O`, the TGI in the experiment with 786-0 renal, with DU-145 prostate, with HCC-2998 colon, in the experiment on HL-60(TB) leukemia, with LOX IMVI melanoma and in the experiment with MDA-MB-231 breast was > 100 µM each time. The TGI with MDA-N, with NCI-H460 lung, with OVCAR-8 ovarian and in the experiment on T-47D breast was > 100 µM each time.

As for `O=C(OC1CN2CCC1CC2)N(c1ccccc1)c1ccccc1` (centres undefined), the TGI in the experiment with 786-0 renal, with DU-145 prostate, in the experiment on HL-60(TB) leukemia, with HOP-62 NSCLC, in the experiment on LOX IMVI melanoma and in the experiment on MDA-MB-231 breast was > 100 µM each time. For the same compound, the TGI in the experiment with MDA-N, with OVCAR-8 ovarian and in the experiment on T-47D breast was > 100 µM in each case.

Consider `CCCOP(=O)(OCCC)OC(C(F)(F)F)C(F)(F)F`, for which the TGI in the experiment on DU-145 prostate, in the experiment on HCC-2998 colon, in the experiment with HL-60(TB) leukemia, in the experiment on HOP-62 NSCLC, with LOX IMVI melanoma and in the experiment on MDA-MB-231 breast was > 100 µM in each case. For the same compound, the TGI in the experiment with MDA-N, in the experiment on NCI-H460 lung and in the experiment with T-47D breast was > 100 µM each time.

Turning to `CC(=O)O[C@H]1C(=O)[C@@]2(C)[C@H]([C@H](OC(=O)c3ccccc3)[C@]3(O)C[C@H](OC(=O)[C@H](O)[C@@H](NC(=O)c4ccccc4)c4cccc(N(C)C)c4)C(C)=C1C3(C)C)[C@]1(OC(C)=O)CO[C@@H]1C[C@@H]2O`, the TGI with 786-0 renal is 13.3 µM; with DU-145 prostate it was 1.58 µM; in the experiment with HL-60(TB) leukemia it was 0.0414 µM; in the experiment on HOP-62 NSCLC it was > 18.3 µM; in the experiment on LOX IMVI melanoma, > 75 µM; with MDA-MB-231 breast it was 36.1 µM. Further, the TGI in the experiment on MDA-N is 0.0238 µM; with NCI-H460 lung, 27.5 µM; in the experiment on OVCAR-8 ovarian it was > 27.4 µM; in the experiment with T-47D breast it was 30.7 µM.

Turning to `COc1cc2cc(C(=O)N3CC(CCl)c4ccc(N(C)C)cc43)[nH]c2c(OC)c1OC` (centres undefined), the TGI in the experiment with DU-145 prostate was determined as 0.359 µM; in the experiment with HCC-2998 colon it was 0.106 µM; in the experiment on HL-60(TB) leukemia it was 0.292 µM; in the experiment on HOP-62 NSCLC, 0.265 µM; with LOX IMVI melanoma, 0.289 µM; in the experiment with MDA-MB-231 breast it was 0.627 µM. In addition, the TGI worked out at 0.431 µM in the experiment with MDA-N, 7.01 µM with NCI-H460 lung and 0.378 µM in the experiment with T-47D breast.

On to `Nn1c(=O)[nH]c2ncn(Cc3ccccc3)c2c1=O`, for which the TGI with 786-0 renal, in the experiment with DU-145 prostate, in the experiment on HCC-2998 colon, in the experiment with HL-60(TB) leukemia, with HOP-62 NSCLC and in the experiment on MDA-MB-231 breast was > 100 µM in each case. The TGI in the experiment on MDA-N, in the experiment on NCI-H460 lung, in the experiment on OVCAR-8 ovarian and in the experiment with T-47D breast was > 100 µM each time.

As for `c1ccc(Nc2nn3c(CCCCCCCCc4nnc5sc(Nc6ccccc6)nn45)nnc3s2)cc1`, the TGI in the experiment on 786-0 renal was 79.5 µM; in the experiment with DU-145 prostate, > 100 µM; with HCC-2998 colon it was > 100 µM; with HOP-62 NSCLC, > 100 µM; in the experiment with LOX IMVI melanoma, > 100 µM; in the experiment with MDA-MB-231 breast it was > 100 µM. Besides, the TGI in the experiment with MDA-N is 46.6 µM; with NCI-H460 lung it was > 100 µM; in the experiment with OVCAR-8 ovarian, > 100 µM; with T-47D breast, 67.1 µM.

Take `O=C(O)/C(=C\c1ccc(O)cc1)c1cccc2ccccc12`: the TGI in the experiment on 786-0 renal, with DU-145 prostate, in the experiment with HCC-2998 colon, in the experiment on HOP-62 NSCLC, in the experiment on LOX IMVI melanoma and in the experiment on MDA-MB-231 breast was > 100 µM throughout. Also, the TGI with MDA-N, with NCI-H460 lung, in the experiment with OVCAR-8 ovarian and in the experiment with T-47D breast was > 100 µM each time.

Turning to `CN1Cc2cc(O)c(O)cc2C(O)C1` (centres undefined), the TGI in the experiment with DU-145 prostate, in the experiment with HCC-2998 colon, in the experiment with HL-60(TB) leukemia, in the experiment on HOP-62 NSCLC, in the experiment with LOX IMVI melanoma and in the experiment with MDA-MB-231 breast was > 100 µM each time. The TGI with MDA-N, in the experiment with NCI-H460 lung, in the experiment with OVCAR-8 ovarian and in the experiment with T-47D breast was > 100 µM each time.

Take `COC(=O)C1=C(C(=O)OC)C(N(C)C)C(C(=O)OC)=C(C(=O)OC)S1`: the TGI in the experiment on 786-0 renal, in the experiment on DU-145 prostate, in the experiment on HCC-2998 colon, with HOP-62 NSCLC, with LOX IMVI melanoma and in the experiment on MDA-MB-231 breast was > 100 µM in each case. Moreover, the TGI in the experiment with MDA-N, in the experiment with NCI-H460 lung, in the experiment on OVCAR-8 ovarian and in the experiment with T-47D breast was > 100 µM in each case.

`N#Cc1cc(Sc2ccc(N)c(C#N)c2)ccc1N`: the TGI in the experiment with 786-0 renal is 43.3 µM; with DU-145 prostate, 89.6 µM; in the experiment on HL-60(TB) leukemia, 6.49 µM; in the experiment on HOP-62 NSCLC it was > 100 µM; with LOX IMVI melanoma, 51.7 µM; with MDA-MB-231 breast, > 100 µM. Moreover, the TGI in the experiment with MDA-N is 24.2 µM; in the experiment on NCI-H460 lung it was 31.1 µM; in the experiment on OVCAR-8 ovarian, 55.2 µM; with T-47D breast it was > 100 µM.

For `Cc1ccc(-c2cc[n+]3c(n2)oc2ccccc23)cc1`, the TGI in the experiment with 786-0 renal is 29.5 µM; with DU-145 prostate, > 100 µM; in the experiment on HCC-2998 colon, > 100 µM; with HL-60(TB) leukemia, 44.2 µM; in the experiment on LOX IMVI melanoma it was > 100 µM; in the experiment with MDA-MB-231 breast, > 100 µM. Further, the TGI in the experiment with MDA-N was > 100 µM; with NCI-H460 lung it was > 100 µM; in the experiment with OVCAR-8 ovarian it was 41.2 µM; in the experiment on T-47D breast, > 100 µM.

Take `O=C(CN1CCCCC1)Nc1ccc2c(c1)C1Oc3ccccc3CC1CO2` (centres undefined): the TGI with 786-0 renal is 45.8 µM; in the experiment on DU-145 prostate, > 100 µM; with HCC-2998 colon it was 34.4 µM; in the experiment with HL-60(TB) leukemia it was > 100 µM; in the experiment on HOP-62 NSCLC, 34.1 µM; in the experiment on LOX IMVI melanoma it was 30 µM. In addition, the TGI is 36.8 µM in the experiment on MDA-MB-231 breast, 36.7 µM in the experiment with MDA-N, > 100 µM with OVCAR-8 ovarian and 52 µM with T-47D breast.
